The target in this assay is T1, TLR9 (Homo sapiens, UniProt Q9NR96).
T1 sequence (Q9NR96 26-1032): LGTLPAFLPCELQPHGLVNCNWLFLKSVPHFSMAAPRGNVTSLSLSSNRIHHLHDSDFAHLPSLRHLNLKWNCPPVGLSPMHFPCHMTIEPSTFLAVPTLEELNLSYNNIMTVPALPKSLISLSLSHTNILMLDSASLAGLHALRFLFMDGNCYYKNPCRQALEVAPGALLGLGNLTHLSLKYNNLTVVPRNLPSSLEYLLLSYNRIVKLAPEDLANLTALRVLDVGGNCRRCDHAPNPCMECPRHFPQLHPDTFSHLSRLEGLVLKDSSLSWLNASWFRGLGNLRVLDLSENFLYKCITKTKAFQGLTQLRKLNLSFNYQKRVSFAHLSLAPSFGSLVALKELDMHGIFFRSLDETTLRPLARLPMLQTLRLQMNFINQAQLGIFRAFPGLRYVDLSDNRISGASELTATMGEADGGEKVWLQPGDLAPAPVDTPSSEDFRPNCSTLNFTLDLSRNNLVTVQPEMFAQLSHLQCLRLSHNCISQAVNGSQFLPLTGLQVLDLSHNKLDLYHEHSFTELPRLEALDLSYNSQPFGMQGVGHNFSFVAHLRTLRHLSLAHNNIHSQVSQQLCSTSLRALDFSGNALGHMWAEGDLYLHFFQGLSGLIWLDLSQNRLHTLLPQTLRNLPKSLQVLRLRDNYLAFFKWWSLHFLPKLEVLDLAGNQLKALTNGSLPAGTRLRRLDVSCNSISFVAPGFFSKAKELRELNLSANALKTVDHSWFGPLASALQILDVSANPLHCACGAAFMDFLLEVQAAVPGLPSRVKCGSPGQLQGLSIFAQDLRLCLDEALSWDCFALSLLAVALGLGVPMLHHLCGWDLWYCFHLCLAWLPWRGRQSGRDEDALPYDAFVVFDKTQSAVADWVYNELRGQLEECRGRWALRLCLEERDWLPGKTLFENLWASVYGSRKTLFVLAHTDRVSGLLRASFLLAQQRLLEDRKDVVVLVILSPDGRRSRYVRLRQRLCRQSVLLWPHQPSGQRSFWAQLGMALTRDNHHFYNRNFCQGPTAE
Put plainly: HEK293-Blue-hTLR-9 cells assay. Details: host or cells: HEK293 (HEK-Blue hTLR9). Conditions: HEK293-Blue-hTLR9 cells, ODN2006 stimulation, 20 hrs; read-out: HEK/hTLR9 IC50. Type of assay: cell-based. An excerpt:
A stable HEK293-Blue-hTLR-9 cell line was purchased from InvivoGen (Cat. #: hkb-htlr9, San Diego, California, USA). These cells were originally designed for studying the stimulation of human TLR9 by monitoring the activation of NF-κB. A SEAP (secreted embryonic alkaline phosphatase) reporter gene was placed under the control of the IFN-β minimal promoter fused to five NF-κB and AP-1-binding sites. The SEAP was induced by activating NF-κB and AP-1 via stimulating HEK-Blue hTLR9 cells with TLR9 ligands. Therefore the reporter expression was declined by TLR9 antagonist under the stimulation of a ligand, such as ODN2006 (Cat. #: tlrl-2006-1, Invivogen, San Diego, California, USA), for incubation of 20 hrs. The cell culture supernatant SEAP reporter activity was determined using QiANTI-Blue™ kit (Cat. #: rep-qbl, Invivogen, San Diego, California, USA) at a wavelength of 640 nm, a detection medium that turns purple or blue in the presence of alkaline phosphatase.
HEK293-Blue-hTLR9 cells were incubated at a density of 250,000-450,000 cells/mL in a volume of 170 μL in a 96-well plate in Dulbecco's Modified Eagle's medium (DMEM) containing 4.5 g/L glucose, 50 U/mL penicillin, […], […], 10% (v/v) heat-inactivated fetal bovine serum with addition of 20 μL test compound in a serial dilution in the presence of final DMSO at 1% and 10 μL of 20 μM ODN2006 in above DMEM, perform incubation under 37° C. in a C02 incubator for 20 hrs. Then 20 μL of the supernatant from each well was incubated with 180 μl. Quanti-blue substrate solution at 37° C. for 2 h and the absorbance was read at 620˜655 nm using a spectrophotometer. The signaling pathway that TLR9 activation leads to downstream NF-κB activation has been widely accepted, and therefore similar reporter assay was modified for evaluating TLR9 antagonist.
With `Cc1cc(N2CCC(c3cnc(N4CCNCC4)cc3C)[C@H](C)C2)c2cnn(C)c2n1` (single isomer, unassigned) [Example 20, 1,6-dimethyl-4-[cis-3-methyl-4-(4-methyl-6-piperazin-1-yl-3-pyridyl)-1-piperidyl]pyrazolo[3,4-b]pyridine], the IC50 is 0.22 µM.
In the case of `Cc1cc(N2CCC(c3cnc(N4CCNCC4)cc3C)[C@H](C)C2)c2cnn(C)c2n1` (single isomer, unassigned) [Example 21, 1,6-dimethyl-4-[trans-3-methyl-4-(4-methyl-6-piperazin-1-yl-3-pyridyl)-1-piperidyl]pyrazolo[3,4-b]pyridine], the IC50 is 0.372 µM.
Consider `Cc1cc(N2CCC(c3ncc(N4CCNCC4)nc3C)[C@H](C)C2)c2cnn(C)c2n1` (single isomer, unassigned) [Example 22, 1,6-dimethyl-4-[cis-3-methyl-4-(3-methyl-5-piperazin-1-yl-pyrazin-2-yl)-1-piperidyl]pyrazolo[3,4-b]pyridine], for which the IC50 stood at 0.315 µM.
Take `Cc1cc(N2CCC(c3ncc(N4CCNCC4)nc3C)[C@H](C)C2)c2cnn(C)c2n1` (single isomer, unassigned) [Example 23, 1,6-dimethyl-4-[trans-3-methyl-4-(3-methyl-5-piperazin-1-yl-pyrazin-2-yl)-1-piperidyl]pyrazolo[3,4-b]pyridine]: the IC50 came out at 0.368 µM.
For `Cc1cc(N2CCC(c3ncc(N4CCNCC4)cc3C)[C@H](C)C2)c2cnn(C)c2n1` (single isomer, unassigned) [Example 24, 1,6-dimethyl-4-[cis-3-methyl-4-(3-methyl-5-piperazin-1-yl-2-pyridyl)-1-piperidyl]pyrazolo[3,4-b]pyridine] the value was 0.076 µM.
As for `Cc1cc(N2CCC(c3ncc(N4CCNCC4)cc3C)[C@H](C)C2)c2cnn(C)c2n1` (single isomer, unassigned) [Example 25, 1,6-dimethyl-4-[trans-3-methyl-4-(3-methyl-5-piperazin-1-yl-2-pyridyl)-1-piperidyl]pyrazolo[3,4-b]pyridine], the IC50 is 0.098 µM.
For `Cc1cc(N2CCC(c3ccc(N4CCNCC4)cc3)CC2)c2cnn(C)c2n1` [Example 1, 1,6-dimethyl-4-[4-(4-piperazin-1-ylphenyl)-1-piperidyl]pyrazolo[3,4-b]pyridine] the value was 0.275 µM; for `Cc1cc(N2CCC(c3ccc(N4CCNCC4)cn3)CC2)c2cnn(C)c2n1` [Example 2, 1,6-dimethyl-4-[4-(5-piperazin-1-yl-2-pyridyl)-1-piperidyl]pyrazolo[3,4-b]pyridine], 0.142 µM; for `Cc1cc(N2CCC(c3cnc(N4CCNCC4)cn3)CC2)c2cnn(C)c2n1` [Example 3, 1,6-dimethyl-4-[4-(5-piperazin-1-ylpyrazin-2-yl)-1-piperidyl]pyrazolo[3,4-b]pyridine], 0.124 µM.
For `Cc1cc(N2CCC(c3ncc(N4CCNCC4)cn3)CC2)c2cnn(C)c2n1` [Example 4, 1,6-dimethyl-4-[4-(5-piperazin-1-ylpyrimidin-2-yl)-1-piperidyl]pyrazolo[3,4-b]pyridine] the value was 0.379 µM; for `Cc1cc(N2CCNCC2)cnc1C1CCN(c2ccnc3c2cnn3C)CC1` [Example 5, 1-methyl-4-[4-(3-methyl-5-piperazin-1-yl-2-pyridyl)-1-piperidyl]pyrazolo[3,4-b]pyridine], 0.364 µM.
For the compound `Cc1cc(N2CCNCC2)ncc1C1CCN(c2ccnc3c2cnn3C)CC1` [Example 6, 1-methyl-4-[4-(4-methyl-6-piperazin-1-yl-3-pyridyl)-1-piperidyl]pyrazolo[3,4-b]pyridine], the IC50 is 0.208 µM.
With `Cc1cc(N2CCC(c3ncc(N4CCNCC4)cc3C)CC2)c2cnn(C)c2n1` [Example 7, 1,6-dimethyl-4-[4-(3-methyl-5-piperazin-1-yl-2-pyridyl)-1-piperidyl]pyrazolo[3,4-b]pyridine], the IC50 amounted to 0.052 µM.
Consider `Cc1cc(N2CCC(c3cnc(N4CCNCC4)cc3C)CC2)c2cnn(C)c2n1` [Example 8, 1,6-dimethyl-4-[4-(4-methyl-6-piperazin-1-yl-3-pyridyl)-1-piperidyl]pyrazolo[3,4-b]pyridine], for which the IC50 came to 0.195 µM.
Regarding `Cc1cc(N2CCC(c3cc(C)c(N4CCNCC4)cn3)CC2)c2cnn(C)c2n1` [Example 9, 1,6-dimethyl-4-[4-(4-methyl-5-piperazin-1-yl-2-pyridyl)-1-piperidyl]pyrazolo[3,4-b]pyridine], the IC50 amounted to 0.12 µM.
Consider `Cc1cc(N2CCC(c3ccc(N4CCNCC4)nc3C)CC2)c2cnn(C)c2n1` [Example 10, 1,6-dimethyl-4-[4-(2-methyl-6-piperazin-1-yl-3-pyridyl)-1-piperidyl]pyrazolo[3,4-b]pyridine], for which the IC50 is 0.212 µM.
As to `Cc1cc(N2CCC(c3cnc(N4CCNCC4)nc3C)CC2)c2cnn(C)c2n1` [Example 11, 1,6-dimethyl-4-[4-(4-methyl-2-piperazin-1-yl-pyrimidin-5-yl)-1-piperidyl]pyrazolo[3,4-b]pyridine], the IC50 was 0.104 µM.
For `CCc1cc(N2CCNCC2)cnc1C1CCN(c2cc(C)nc3c2cnn3C)CC1` [Example 13, 4-[4-(3-ethyl-5-piperazin-1-yl-2-pyridyl)-1-piperidyl]-1,6-dimethyl-pyrazolo[3,4-b]pyridine] the value was 0.168 µM.
`COc1cc(N2CCNCC2)cnc1C1CCN(c2cc(C)nc3c2cnn3C)CC1` [Example 14, 4-[4-(3-methoxy-5-piperazin-1-yl-2-pyridyl)-1-piperidyl]-1,6-dimethyl-pyrazolo[3,4-b]pyridine]: the IC50 was determined as 0.225 µM.
In the case of `Cc1cc(N2CCC(c3ncc(N4CC[C@@H](N)[C@@H](F)C4)cc3C)CC2)c2cnn(C)c2n1` [Example 15, (3S,4R)-1-[6-[1-(1,6-dimethylpyrazolo[3,4-b]pyridin-4-yl)-4-piperidyl]-5-methyl-3-pyridyl]-3-fluoro-piperidin-4-amine], the IC50 is 0.13 µM.
Turning to `COC[C@H]1CN(c2cnc(C3CCN(c4cc(C)nc5c4cnn5C)CC3)c(C)c2)CCN1` [Example 16, 4-[4-[5-[(3R)-3-(methoxymethyl)piperazin-1-yl]-3-methyl-2-pyridyl]-1-piperidyl]-1,6-dimethyl-pyrazolo[3,4-b]pyridine], the IC50 is 0.143 µM.
For the compound `CO[C@H]1CN(c2cnc(C3CCN(c4cc(C)nc5c4cnn5C)CC3)c(C)c2)CC[C@@H]1N` [Example 17, (3S,4S)-1-[6-[1-(1,6-dimethylpyrazolo[3,4-b]pyridin-4-yl)-4-piperidyl]-5-methyl-3-pyridyl]-3-methoxy-piperidin-4-amine], the IC50 turned out to be 0.073 µM.
For the compound `CO[C@@H]1CN(c2cnc([C@@H]3CCN(c4cc(C)nc5c4cnn5C)C[C@H]3C)c(C)c2)C[C@H]1N` [Example 26, (3R,4R)-1-[6-[(3S,4R)-1-(1,6-dimethylpyrazolo[3,4-b]pyridin-4-yl)-3-methyl-4-piperidyl]-5-methyl-3-pyridyl]-4-methoxy-pyrrolidin-3-amine], the IC50 stood at 0.109 µM.
In the case of `Cc1cc(N2CC[C@@H](c3ncc(N4CC5(CNCCO5)C4)cc3C)[C@H](C)C2)c2cnn(C)c2n1` [Example 27, 2-[6-[(3S,4R)-1-(1,6-dimethylpyrazolo[3,4-b]pyridin-4-yl)-3-methyl-4-piperidyl]-5-methyl-3-pyridyl]-5-oxa-2,8-diazaspiro[3.5]nonane], the IC50 turned out to be 0.184 µM.

The values are drawn from patent US20240360126A1, “PYRAZOLO[3,4-B]PYRIDINE COMPOUNDS FOR THE TREATMENT OF AUTOIMMUNE DISEASE” (Hoffmann-La Roche Inc., priority 2021, published 2024).
